In patent US11673897B2, “Compounds for the treatment of kinase-dependent disorders” (Exelixis, Inc., priority 2018, dated 2023) one finds IC50 data, which are given here for nine molecules.

Where only a bound is given, the exact number is not on record here.

One assay deals with Mer (Homo sapiens (Human), UniProt Q12866). The experiment in a line: Human Mer kinase assay (33P radiometric, KinaseProfiler). As to conditions: 10 μM ATP. It counts as biochemical. Here is the method:
(§1) Kinase activity and compound inhibition were investigated using the ^33P-Phosphoryl transfer radiometric kinase assay, performed using the KinaseProfiler™ service of Eurofins Pharma Discovery Services UK Limited. Dose-response experiments were performed using nine compound concentrations in a 96-well microtiter plate. For each assay, all compounds were prepared to a 50× final assay concentration (50 μM) in 100% DMSO, then diluted in a half-log series, with the final top concentration at 1 μM. This working stock of the compound was added to the assay well as the first component in the reaction, followed by the remaining components as detailed in the following assay protocols below. The positive control wells (100% kinase activity) contain all components of the reaction including 2% DMSO (control for solvent effects), except the compound of interest. Blank wells contain all components of the reaction, with the reference inhibitor, staurosporine. This reference compound was used to abolish kinase activity and generated the 0% kinase activity base-line. IC50 values were calculated by nonlinear regression analysis using the sigmoidal dose-response (variable slope) curve fit on XLFit version 5.3 (ID Business Solutions).
Human Mer (residues R557-E882 with H628Q and R794A, 0.7 nM) was incubated with 8 mM MOPS pH 7.0, 0.2 mM EDTA, 30 mM NaCl, 250 μM GGMEDIYFEFMGGKKK (SEQ ID NO. 44), 10 mM magnesium acetate, and 10 μM [γ-^33P-ATP]. The reaction was initiated by the addition of the Mg/ATP mix. After incubation for 40 minutes at room temperature, the reaction was stopped by the addition of phosphoric acid to a concentration of 0.5%. A reaction aliquot of 10 μL was then spotted onto a P30 filtermat and washed four times for 4 minutes in 0.425% phosphoric acid and once in methanol prior to drying and scintillation counting. Incorporated ^33P was measured using the Wallac Microbeta scintillation counter (Perkin Elmer).

The target in assay [1] is T1, Met (Homo sapiens (Human), UniProt P08581). The experiment in a line: Human Met kinase assay (33P radiometric, KinaseProfiler). It counts as biochemical. The settings on record: 10 μM ATP, read-out: c-Met IC50. Here is the method: as §1
Human Met (residues R974-S1390 with A1209G and V1290L, 3.4 nM) was incubated with 8 mM MOPS pH 7.0, 0.2 mM EDTA, 250 μM KKKGQEEEYVFIE (SEQ ID NO. 45), 1 mM sodium orthovanadate, 5 mM […], 10 mM magnesium acetate, and 10 μM [γ-33P-ATP]. The reaction was initiated by the addition of the Mg/ATP mix. After incubation for 40 minutes at room temperature, the reaction was stopped by the addition of phosphoric acid to a concentration of 0.5%. A reaction aliquot of 10 μL was then spotted onto a P30 filtermat and washed four times for 4 minutes in 0.425% phosphoric acid and once in methanol prior to drying and scintillation counting. Incorporated 33P was measured using the Wallac Microbeta scintillation counter (Perkin Elmer).

Assay [2] concerns the target T1, Met. Put plainly: Met autophosphorylation ELISA in PC-3 cells. In kind it is cell-based. As to conditions: cellular, HGF-stimulated, phospho-Met ELISA, read-out: c-Met IC50. In short, it runs like this: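 PC-3 cells serum-starved 3 h were treated 1 h with an 8-point compound series (0.3% DMSO), then stimulated 10 min with 100 ng/mL human HGF. Phospho-Met (panTyr) in lysates was measured by sandwich ELISA against DMSO (100%) and reference-inhibitor (0%) controls, and IC50 came from a 4-parameter logistic fit.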
Target sequence in this assay (P08581 25-1390): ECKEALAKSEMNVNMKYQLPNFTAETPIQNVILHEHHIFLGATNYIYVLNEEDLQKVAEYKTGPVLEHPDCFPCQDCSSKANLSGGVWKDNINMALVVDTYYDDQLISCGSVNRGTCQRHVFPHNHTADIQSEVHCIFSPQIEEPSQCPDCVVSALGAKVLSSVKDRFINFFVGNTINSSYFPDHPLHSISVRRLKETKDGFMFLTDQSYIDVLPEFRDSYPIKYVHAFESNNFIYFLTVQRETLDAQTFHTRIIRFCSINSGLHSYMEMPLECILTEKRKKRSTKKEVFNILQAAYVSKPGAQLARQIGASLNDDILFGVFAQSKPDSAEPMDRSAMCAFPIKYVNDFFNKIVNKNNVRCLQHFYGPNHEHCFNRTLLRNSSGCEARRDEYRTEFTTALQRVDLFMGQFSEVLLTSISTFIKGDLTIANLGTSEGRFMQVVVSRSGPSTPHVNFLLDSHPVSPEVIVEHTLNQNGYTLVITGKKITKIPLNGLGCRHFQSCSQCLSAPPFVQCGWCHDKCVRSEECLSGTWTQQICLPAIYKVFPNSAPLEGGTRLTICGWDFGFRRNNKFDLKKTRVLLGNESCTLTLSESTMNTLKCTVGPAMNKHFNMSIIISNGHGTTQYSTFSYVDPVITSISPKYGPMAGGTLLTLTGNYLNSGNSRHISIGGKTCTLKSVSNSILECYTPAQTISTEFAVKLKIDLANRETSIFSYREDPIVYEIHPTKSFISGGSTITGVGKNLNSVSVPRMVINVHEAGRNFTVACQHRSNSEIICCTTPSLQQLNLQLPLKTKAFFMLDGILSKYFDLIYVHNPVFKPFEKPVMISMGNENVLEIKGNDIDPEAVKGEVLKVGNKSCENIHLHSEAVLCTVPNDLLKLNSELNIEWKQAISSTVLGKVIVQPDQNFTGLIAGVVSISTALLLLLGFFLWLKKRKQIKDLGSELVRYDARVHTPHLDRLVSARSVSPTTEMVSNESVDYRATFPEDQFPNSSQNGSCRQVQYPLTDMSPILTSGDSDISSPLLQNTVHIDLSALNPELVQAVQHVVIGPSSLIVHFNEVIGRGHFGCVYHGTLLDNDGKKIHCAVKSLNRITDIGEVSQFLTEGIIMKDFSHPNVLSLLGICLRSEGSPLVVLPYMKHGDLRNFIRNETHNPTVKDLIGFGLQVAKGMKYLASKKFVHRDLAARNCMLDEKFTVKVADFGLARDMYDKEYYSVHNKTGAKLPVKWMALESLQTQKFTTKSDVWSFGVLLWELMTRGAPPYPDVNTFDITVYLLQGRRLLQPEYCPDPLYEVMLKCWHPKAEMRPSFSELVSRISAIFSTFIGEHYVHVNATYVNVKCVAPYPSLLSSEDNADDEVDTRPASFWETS

The next assay has as its target KDR (Homo sapiens (Human), UniProt P35968). Put plainly: KDR autophosphorylation ELISA in HUVEC cells. In kind it is cell-based. The settings on record: cellular, VEGF165-stimulated, phospho-KDR ELISA. The method, boiled down:
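HUVEC, 24 h serum-free starvation; cpd 8-pt dilution, 0.3% DMSO final, 1 h; VEGF165 100 ng/mL, 5 min; cold lysis; phospho-KDR ELISA; IC50, 4PL.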

Sequence of KDR (P35968 20-1356): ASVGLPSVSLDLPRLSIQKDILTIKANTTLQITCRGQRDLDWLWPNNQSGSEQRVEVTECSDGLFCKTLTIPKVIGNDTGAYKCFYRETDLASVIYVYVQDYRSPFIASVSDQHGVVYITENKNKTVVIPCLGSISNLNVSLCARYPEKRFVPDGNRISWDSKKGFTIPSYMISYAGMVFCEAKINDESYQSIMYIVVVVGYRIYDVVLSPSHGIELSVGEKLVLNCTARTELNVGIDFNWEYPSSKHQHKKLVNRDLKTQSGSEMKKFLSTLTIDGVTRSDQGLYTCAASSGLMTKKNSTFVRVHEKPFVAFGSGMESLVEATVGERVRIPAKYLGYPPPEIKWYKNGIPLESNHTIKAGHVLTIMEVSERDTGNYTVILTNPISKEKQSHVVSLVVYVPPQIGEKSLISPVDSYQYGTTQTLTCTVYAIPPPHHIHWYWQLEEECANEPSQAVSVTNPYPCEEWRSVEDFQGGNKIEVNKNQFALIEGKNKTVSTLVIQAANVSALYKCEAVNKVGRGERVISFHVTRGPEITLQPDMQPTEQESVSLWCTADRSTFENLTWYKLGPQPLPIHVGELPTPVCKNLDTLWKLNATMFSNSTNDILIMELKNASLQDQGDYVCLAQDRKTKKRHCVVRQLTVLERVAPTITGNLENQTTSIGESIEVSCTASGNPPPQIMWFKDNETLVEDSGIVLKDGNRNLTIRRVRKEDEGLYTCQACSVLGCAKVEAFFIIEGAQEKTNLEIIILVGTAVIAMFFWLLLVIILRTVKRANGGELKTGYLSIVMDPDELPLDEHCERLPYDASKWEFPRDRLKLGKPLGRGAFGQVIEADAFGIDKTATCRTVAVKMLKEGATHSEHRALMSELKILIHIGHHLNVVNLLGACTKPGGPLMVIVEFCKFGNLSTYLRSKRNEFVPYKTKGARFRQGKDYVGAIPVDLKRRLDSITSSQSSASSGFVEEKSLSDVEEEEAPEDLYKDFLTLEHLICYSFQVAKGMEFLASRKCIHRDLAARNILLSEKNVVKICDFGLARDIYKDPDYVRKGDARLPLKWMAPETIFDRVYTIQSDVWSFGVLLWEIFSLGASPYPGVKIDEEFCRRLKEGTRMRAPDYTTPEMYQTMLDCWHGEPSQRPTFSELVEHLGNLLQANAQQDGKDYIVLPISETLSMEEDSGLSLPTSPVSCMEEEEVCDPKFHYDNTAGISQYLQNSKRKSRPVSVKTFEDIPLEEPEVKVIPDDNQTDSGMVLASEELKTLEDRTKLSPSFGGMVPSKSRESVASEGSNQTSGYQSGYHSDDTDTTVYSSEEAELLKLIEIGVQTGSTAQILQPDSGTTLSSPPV
Sequence of Mer (Q12866 557-882): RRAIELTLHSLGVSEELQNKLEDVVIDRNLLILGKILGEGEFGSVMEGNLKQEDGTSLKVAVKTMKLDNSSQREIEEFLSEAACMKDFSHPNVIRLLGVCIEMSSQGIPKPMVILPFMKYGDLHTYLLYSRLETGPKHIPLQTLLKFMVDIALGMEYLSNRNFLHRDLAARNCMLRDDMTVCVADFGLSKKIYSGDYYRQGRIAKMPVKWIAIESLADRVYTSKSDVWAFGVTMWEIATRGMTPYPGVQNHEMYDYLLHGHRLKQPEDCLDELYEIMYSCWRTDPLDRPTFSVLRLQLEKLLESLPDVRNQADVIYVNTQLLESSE

As for `COC(=O)c1cc2c(Oc3ccc(NC(=O)C4(C(=O)Nc5ccc(F)cc5)CC4)cn3)ccnc2cc1OC` [Compound 10, Methyl 4-[5-[[1-[(4-fluorophenyl)carbamoyl]cyclopropanecarbonyl]-amino]pyridin-2-yl]oxy-7-methoxyquinoline-6-carboxylate], the IC50 against Mer is at most 10 nM; on Met [1], at most 10 nM; on Met [2], 100 to 300 nM; at KDR it was 10 to 100 nM.

For `COC(=O)c1cc2c(Oc3ncc(NC(=O)C4(C(=O)Nc5ccc(F)cc5)CC4)cc3Cl)ccnc2cc1OC` [Compound 11, Methyl 4-[3-chloro-5-[[1-[(4-fluorophenyl)carbamoyl]cyclopropanecarbonyl]-amino]pyridin-2-yl]oxy-7-methoxyquinoline-6-carboxylate], the IC50 on Mer is at most 10 nM; at Met [1], at most 10 nM; on Met [2] it was 10 to 100 nM; at KDR it was above 300 nM.

For the molecule `COc1cc2nccc(Oc3ccc(NC(=O)C4(C(=O)Nc5ccc(F)cc5)CC4)cn3)c2cc1C(N)=O` [Compound 16, 1-N′-[6-(6-Carbamoyl-7-methoxyquinolin-4-yl)oxypyridin-3-yl]-1-N-(4-fluorophenyl)-cyclopropane-1,1-dicarboxamide], the IC50 on Mer is at most 10 nM; at Met [1], at most 10 nM; at Met [2] it was 100 to 300 nM; at KDR it was 10 to 100 nM.

With `CNC(=O)c1cc2c(Oc3ccc(NC(=O)C4(C(=O)Nc5ccc(F)cc5)CC4)cn3)ccnc2cc1OC` [Compound 17, 1-N-(4-Fluorophenyl)-1-N′-[6-[7-methoxy-6-(methylcarbamoyl)quinolin-4-yl]oxypyridin-3-yl]cyclopropane-1,1-dicarboxamide], the IC50 was 10 to 100 nM at Mer, 10 to 100 nM at Met [1], 100 to 300 nM at Met [2] and 10 to 100 nM at KDR.

As for `COc1cc2nccc(Oc3ncc(NC(=O)C4(C(=O)Nc5ccc(F)cc5)CC4)cc3Cl)c2cc1C(N)=O` [Compound 18, 1-N′-[6-(6-Carbamoyl-7-methoxyquinolin-4-yl)oxy-5-chloropyridin-3-yl]-1-N-(4-fluorophenyl)cyclopropane-1,1-dicarboxamide], the IC50 was at most 10 nM on Mer, at most 10 nM at Met [1], 10 to 100 nM at Met [2] and above 300 nM against KDR.

Regarding `COc1cc2nccc(Oc3ccc(NC(=O)C4(C(=O)Nc5ccc(F)cc5)CC4)cn3)c2cc1-c1cn[nH]c1` [Compound 60, 1-N-(4-Fluorophenyl)-1-N′-[6-[7-methoxy-6-(1H-pyrazol-4-yl)quinolin-4-yl]oxypyridin-3-yl]cyclopropane-1,1-dicarboxamide], the IC50 was at most 10 nM at Mer, at most 10 nM at Met [1], 10 to 100 nM on Met [2] and 100 to 300 nM on KDR.

On to `COc1cc2nccc(Oc3ncc(NC(=O)C4(C(=O)Nc5ccc(F)cc5)CC4)cc3Cl)c2nc1OC` [Compound 80, 1-N′-[5-Chloro-6-[(6,7-dimethoxy-1,5-naphthyridin-4-yl)oxy]pyridin-3-yl]-1-N-(4-fluorophenyl)cyclopropane-1,1-dicarboxamide], for which the half-inhibitory concentration (IC50) at Mer is 10 to 100 nM; on Met [1] it was 10 to 100 nM; on Met [2] it was 10 to 100 nM; on KDR, above 300 nM.

For `COc1cc2nccc(Oc3ccc(NC(=O)C4(C(=O)Nc5ccc(F)cc5)CC4)cn3)c2nc1OC` [Compound 81, 1-N′-[6-[(6,7-Dimethoxy-1,5-naphthyridin-4-yl)oxy]pyridin-3-yl]-1-N-(4-fluorophenyl)cyclopropane-1,1-dicarboxamide], the half-maximal inhibitory concentration (IC50) on Mer is 10 to 100 nM; at Met [1] it was 10 to 100 nM; on Met [2] it was 100 to 300 nM; at KDR it was above 300 nM.

For the molecule `COc1cc2nccc(Oc3ncc(NC(=O)C4(C(=O)Nc5ccc(F)cc5)CC4)cc3F)c2nc1OC` [Compound 82, 1-N′-[6-[(6,7-Dimethoxy-1,5-naphthyridin-4-yl)oxy]-5-fluoropyridin-3-yl]-1-N-(4-fluorophenyl)cyclopropane-1,1-dicarboxamide], the IC50 on Mer is at most 10 nM; on Met [1] it was at most 10 nM; at Met [2], 10 to 100 nM; against KDR, above 300 nM.
